Data set [1] in a line: Cell viability assay (MTS). The format is cell-based. The note with it: human, non-infected Huh7 cells; for viability at 10 µM: normalized to DMSO; for CC50 at 72 h: Huh7 cells. As to the method:
Cell viability assays for non-infected Huh7 cells treated with the testing compounds (in-house library), control compounds (NITD008, RDV) and DMSO were performed in parallel with the antiviral screening. After 3 or 5 days of treatment, depending upon the experiment, cell viability was evaluated using the MTS-based tetrazolium reduction CellTiter 96 Aqueous Non-Radioactive cell proliferation assay (Promega). Treatment was retired from the wells and the cells incubated with MTS diluted 1:10 in MEM medium supplemented with 10% FBS. Absorbance was measured at 490 nm wavelength. Readings were normalized with DMSO-treated cells (100%) and expressed as % viability. For dose-response experiments, we used concentrations between 0.01 and 90 µM and dose-response curves and CC50 were calculated using GraphPad Prism.

In another data set the test system is DENV-2. Kind of data set: DENV titer-reduction assay (plaque assay). The format is cell-based, dengue virus. Conditions: 8.5 µM (compound 14 at 1.5 µM), Huh7, MOI 0.05, 72 h. As for the experimental part: (§1) Selected compounds were validated at 8.5 µM or 1.5 µM (for compounds considered toxic at higher concentrations) using titer-reduction assays. Huh7 cells (1.5 × 10^5 per well) were plated in 24-well plates. Next day, the cells were inoculated with ZIKV or DENV (MOI 0.2 or 0.05, respectively) and two hours later, the inoculum was replaced with post-infection medium containing compound of interest at 8.5 µM or 1.5 µM. Seventy-two hpi, supernatants from infected and treated cells were collected and viral titers were measured by plaque assay. To visualize plaques, confluent Vero cells in 24-well plates were inoculated with 1:10 serial dilutions of supernatants. After two hours, the inoculum was retired and replaced with 800 µL of overlay medium (MEM medium containing 1.3% methylcellulose, 2% FBS, 100 IU streptomycin/penicillin per mL and 10 mM HEPES). After 5 days (7 days for DENV), cells were washed with PBS, fixed with 2% formaldehyde, and stained using 0.5% crystal violet in 25% methanol. Infectious virus titer (pfu/mL) was determined using the following formula: number of plaques × dilution factor × (1/inoculum volume (mL)). Viral titers were normalized with DMSO-treated and infected cells (0% inhibition). The limit of detection was 200 pfu/mL (100% inhibition). […] Dose-response assays (Figure S4, Panels B and C) were performed for selected compounds using titer-reduction assays. We used a concentration range of 0.5 to 15 µM for all selected compounds except for compound 14 (range of 0.1–3 µM). Pfu/mL were normalized as mentioned for single-dose response experiment using the values for DMSO-treated and infected cells (0% inhibition) and the limit of detection value (200 pfu/mL) as 100% inhibition. Dose-response curves were built in GraphPad Prism and EC50 values were obtained from those curves.
Figure 2 Inhibition of DENV by selected compounds. Huh7 cells were plated in 24 well plate. Next day, cells were inoculated with DENV (MOI = 0.05). After 2 h of infection inoculum was retired and the cells were treated with inhibitors at 8.5 µM (except for compound 14, 1.5 µM) for 72 h. Next, supernatants were assayed for viral titer by plaque assay and titers were normalized vs DMSO and expressed as % inhibition. The experiment was performed two independent times and each sample was performed in triplicate. The bars depict mean plus standard error of the mean.

Data set [2] deals with ZIKV. The data set is described as follows: ZIKV titer-reduction assay (plaque assay). The format is cell-based, Zika virus. Conditions: Huh7, MOI 0.2, 72 hpi; for inhibition at 1.5 µM / inhibition at 8.5 µM / EC50 / EC90: Zika virus; for inhibition at 1.5 µM / inhibition at 8.5 µM: Huh-7, 72 h; for EC50 / EC90: Huh-7. As for the experimental part: as §1
The subject of data set [3] is ZIKV. Kind of data set: ZIKV reporter assay (luciferase-expressing ZIKV PAN1 Nluc in Huh7 cells). In kind it is cell-based. The note with it: Zika virus, Huh-7, Huh7, MOI 0.2, 72 hpi. As for the experimental part: The initial screening for ZIKV was performed using the in-house developed infectious ZIKV reporter expressing Nanoluc (ZIKV PAN1 Nluc) (see details in SI). Briefly, 1.5 × 10^4 Huh7 cells per well were seeded in 96 well plates. Next day, cells were inoculated with the ZIKV reporter at a multiplicity of infection (MOI) of 0.2 in infection medium (MEM medium supplemented with 1% FBS, 100 IU streptomycin/penicillin per mL, 1 mM sodium pyruvate and 10 mM HEPES). After 2 h, the inoculum was replaced with post-infection medium (MEM medium supplemented with 5% FBS, 100 IU streptomycin/penicillin per mL, 1 mM sodium pyruvate and 10 mM HEPES) containing compound of interest (10 µM). We used the flavivirus NS5 MTase inhibitor NSC12155^13 (10 µM) and the NS5 RdRp inhibitor NITD008^12 (1 µM) as positive controls for inhibition or 0.05% DMSO as vehicle control. Seventy-two hours post-infection (hpi), the cells were lysed with 50 µL 1× luciferase lysis buffer (Promega, Madison, WI, USA), incubated 10 min at room temp and stored at −80 °C. Thirty-five µL of lysed cells were transferred to a white 96-well plate and combined with 35 µL Nano-Glo® luciferase assay substrate (Promega) diluted 1:50 in Nano-Glo® luciferase assay buffer (Promega). The reaction was incubated for 2 min and luminescence readings were acquired using a Neo 2 plate reader (BioTek, Winooski, VT, USA). Percent inhibition was calculated in GraphPad Prism (San Diego, CA, USA) normalizing the luciferase signal to infected cells treated with DMSO (0% inhibition) and uninfected cells treated with DMSO (100% inhibition). EC50 values were calculated in GraphPad Prism using data obtained from dose-response experiments. For compounds 1 and 8, a range of concentrations between 0.05 and 15 µM were used. For compounds 11, 14, 23 and NSC12155, we used concentrations from 0.005 to 90 µM and 0.002 to 45 µM for NITD008.
Background: Reporter assays use an easily measured gene product as a stand-in for the process of interest.

For the next data set, the target named is ZIKV NS5 MTase (Zika virus, UniProt A0A024B7W1). The data set is described as follows: ZIKV NS5 MTase biochemical assay. The note with it: read-out: IC50 against ZIKV NS5 MTase.

Where only a bound is given, the exact number is not on record here.

The viability is a read-out of living cells in per cent, often relative to untreated cells. Low readings indicate a greater loss of cells, high ones better survival. As usually defined, the CC50 is the concentration at which the toxic effect on the cells reaches its halfway point. A word on the inhibition: it is how much of the control response was suppressed. Higher therefore signals strong suppression. As usually defined, the EC50 is the midpoint of the concentration-response curve. Read a low EC50 as higher potency in that assay. The EC90 is the concentration needed for an effect of 90%. Read a low EC90 as an effect from little substance. What is called IC50 is the midpoint of a concentration-inhibition curve.

Chain of ZIKV NS5 MTase (A0A024B7W1 2521-2785): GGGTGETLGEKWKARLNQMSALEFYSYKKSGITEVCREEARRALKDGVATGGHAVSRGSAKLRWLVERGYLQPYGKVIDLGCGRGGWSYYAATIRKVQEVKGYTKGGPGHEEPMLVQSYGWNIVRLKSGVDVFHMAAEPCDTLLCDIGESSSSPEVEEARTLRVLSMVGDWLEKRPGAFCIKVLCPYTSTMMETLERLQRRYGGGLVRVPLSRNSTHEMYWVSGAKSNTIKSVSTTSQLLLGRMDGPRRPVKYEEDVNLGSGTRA

In data set [1], `N#Cc1ccc(Cn2ccc3c(NCc4cccc(Cl)c4)ncnc32)cc1` [Compound 8, 4-((4-((3-Chlorobenzyl)amino)-7H-pyrrolo[2,3-d]pyrimidin-7-yl)methyl)benzonitrile] had a viability at 10 µM of 68% and a CC50 at 72 h of 20.6 µM. Also, in the data set with DENV-2, the “Inhibition of DENV (% inhibition / protection)” value is given as “among the top inhibitors”. In the data set with ZIKV [2] (1.5 µM), this compound came in with an inhibition at 1.5 µM of 47%. In the data set with ZIKV [2], this compound displayed an inhibition at 8.5 µM of 97%, a half-maximal effective concentration (EC50) of 4.29 µM and a 90% effect concentration (EC90) of 9.02 µM. In the data set on ZIKV [3], 10 µM produced 78% inhibition and the midpoint of the response, the EC50, lay at 4.1 µM.

`O=[N+]([O-])c1ccc(Cn2ccc3c(NCc4ccc(Cl)cc4)ncnc32)cc1` [Compound 20, N-(4-Chlorobenzyl)-7-(4-nitrobenzyl)-7H-pyrrolo[2,3-d]pyrimidin-4-amine]: in data set [1], the viability at 10 µM came to 49%. In addition, the inhibition at 1.5 µM in the data set on ZIKV [2] (1.5 µM) is 37%. For the same compound, 10 µM produced 93% inhibition in the data set with ZIKV [3].

`FC(F)(F)c1ccc(Cn2ccc3c(NCc4cccc(Cl)c4)ncnc32)cc1` [Compound 6, N-(3-Chlorobenzyl)-7-(4-(trifluoromethyl)benzyl)-7H-pyrrolo[2,3-d]pyrimidin-4-amine] registered a viability at 10 µM in data set [1] of 62%. This compound also had an inhibition at 8.5 µM in the data set on ZIKV [2] of 83%. The inhibition at 10 µM in the data set with ZIKV [3] worked out at 85%.

Consider `O=[N+]([O-])c1ccccc1Cn1ccc2c(NCc3cccc(Cl)c3)ncnc21` [Compound 4, N-(3-Chlorobenzyl)-7-(2-nitrobenzyl)-7H-pyrrolo[2,3-d]pyrimidin-4-amine], for which the viability at 10 µM in data set [1] was determined as 93%. The same compound had an inhibition at 8.5 µM in the data set on ZIKV [2] of 82%. Moreover, the inhibition at 10 µM in the data set on ZIKV [3] was found to be 44%.

For `N#Cc1cccc(Cn2ccc3c(NCc4cccc(Cl)c4)ncnc32)c1` [Compound 11, 3-((4-((3-Chlorobenzyl)amino)-7H-pyrrolo[2,3-d]pyrimidin-7-yl)methyl)benzonitrile], in data set [1], the viability at 10 µM is 60% and the CC50 at 72 h turned out to be 15.3 µM. The “Inhibition of DENV (% inhibition / protection)” value in the data set on DENV-2 is “among the top inhibitors”. In addition, in the data set on ZIKV [2], the inhibition at 8.5 µM came out at 99%, it took 5.05 µM to reach a half-maximal effect (EC50) and the EC90 was 6.98 µM. In the data set on ZIKV [3], this compound showed an inhibition at 10 µM of 90% and an EC50 of 3.16 µM.

In data set [1], `N#Cc1ccc(Cn2ccc3c(NCc4cccc(Cl)c4)ncnc32)c2ccccc12` [Compound 15, 4-((4-((3-Chlorobenzyl)amino)-7H-pyrrolo[2,3-d]pyrimidin-7-yl)methyl)-1-naphthonitrile] showed a viability at 10 µM of 84% and a CC50 at 72 h of 39.6 µM. In the data set with ZIKV [2], this compound had an inhibition at 8.5 µM of 0%. The same compound displayed an inhibition at 10 µM with ZIKV [3] of 69%.

For `O=[N+]([O-])c1ccc(Cn2ccc3c(NCc4cccc(Cl)c4)ncnc32)cc1` [Compound 1, N-(3-Chlorobenzyl)-7-(4-nitrobenzyl)-7H-pyrrolo [2,3-d]pyrimidin-4-amine], in data set [1], the viability at 10 µM came to 69% and the CC50 at 72 h was found to be 20 µM. Moreover, at ZIKV NS5 MTase, the IC50 was greater than 100 µM. Moreover, the “Inhibition of DENV (% inhibition / protection)” value in the data set on DENV-2 is “among the top inhibitors”. In the data set with ZIKV [2], at 8.5 µM the inhibition was 93%, the concentration for a half-maximal effect (EC50) was determined as 5.21 µM and it took 10.7 µM to reach the 90% level (EC90). For the same compound, in the data set on ZIKV [3], at 10 µM the inhibition was 73% and the concentration giving a half-maximal response (EC50) is 5.25 µM.

As to `Nc1ccc(Cn2ccc3c(NCc4cccc(Cl)c4)ncnc32)cc1` [Compound 2, 7-(4-Aminobenzyl)-N-(3-chlorobenzyl)-7H-pyrrolo[2,3-d]pyrimidin-4-amine], the viability at 10 µM in data set [1] stood at 38%. In the data set with ZIKV [2] (1.5 µM), the “Titer Reduction Assay % at 1.5 µM” value is “toxic”. In the data set with ZIKV [3], this compound had an inhibition at 10 µM of 72%.

`CS(=O)(=O)c1cccc(Cn2ccc3c(NCc4cccc(Cl)c4)ncnc32)c1` [Compound 10, N-(3-Chlorobenzyl)-7-(3-(methylsulfonyl)benzyl)-7H-pyrrolo[2,3-d]pyrimidin-4-amine] returned a viability at 10 µM in data set [1] of 82%. This compound registered an inhibition at 8.5 µM with ZIKV [2] of 92%. Moreover, 10 µM produced 72% inhibition in the data set with ZIKV [3].

For the compound `O=[N+]([O-])c1ccc(Cn2ccc3c(NCc4ccc(Cl)c(Cl)c4)ncnc32)cc1` [Compound 23, N-(3,4-Dichlorobenzyl)-7-(4-nitrobenzyl)-7H-pyrrolo[2,3-d]pyrimidin-4-amine], in data set [1], the viability at 10 µM stood at 80% and the CC50 at 72 h stood at 26.8 µM. For the same compound, in the data set with DENV-2, the “Inhibition of DENV (% inhibition / protection)” value was “among the top inhibitors”. Also, the “Titer Reduction Assay EC99” value in the data set on ZIKV [2] (NR = not reached) is on record as 12.0 µM. Besides, in the data set with ZIKV [2], 8.5 µM produced 98% inhibition; the midpoint of the response, the EC50, lay at 5.91 µM; the 90% effect concentration (EC90) came out at 10.4 µM. Moreover, in the data set with ZIKV [3], the inhibition at 10 µM came to 91% and the concentration giving a half-maximal response (EC50) amounted to 5.7 µM.

In data set [1], `Clc1cccc(CNc2ncnc3c2ccn3Cc2ccnc3ccccc23)c1` [Compound 14, N-(3-Chlorobenzyl)-7-(quinolin-4-ylmethyl)-7H-pyrrolo[2,3-d]pyrimidin-4-amine] gave a viability at 10 µM of 48% and a CC50 at 72 h of 5.67 µM. In addition, in the data set with ZIKV [2] (1.5 µM), the inhibition at 1.5 µM was determined as 94%. In the data set with ZIKV [2], this compound had an EC50 of 1.1 µM and an EC90 of 2.28 µM. In the data set on ZIKV [3], this compound gave an inhibition at 10 µM of 100% and a concentration for a half-maximal effect (EC50) of 0.93 µM.

In data set [1], `N#Cc1ccc(Cn2ncc3c(NCc4cccc(Cl)c4)ncnc32)cc1` [Compound 32, 4-((4-((3-Chlorobenzyl)amino)-1H-pyrazolo[3,4-d]pyrimidin-1-yl)methyl)benzonitrile] gave a viability at 10 µM of 88% and a half-maximal cytotoxic concentration (CC50) at 72 h of 17.4 µM. For the same compound, the inhibition at 8.5 µM in the data set with ZIKV [2] worked out at 88%. This compound also showed an inhibition at 10 µM with ZIKV [3] of 79%.

For the compound `Clc1cccc(CNc2ncnc3c2ccn3Cc2ccc3ccccc3c2)c1` [Compound 13, N-(3-Chlorobenzyl)-7-(naphthalen-2-ylmethyl)-7H-pyrrolo[2,3-d]pyrimidin-4-amine], the viability at 10 µM in data set [1] was 45%. Moreover, in the data set on ZIKV [2] (1.5 µM), the inhibition at 1.5 µM turned out to be 18%. The compound further gave an inhibition at 10 µM in the data set with ZIKV [3] of 75%.

Values taken from publication PMC8270260, “4,7-Disubstituted 7H-Pyrrolo[2,3-d]pyrimidines and Their Analogs as Antiviral Agents against Zika Virus” (Molecules, 2021).
